Source: ChEMBL document CHEMBL1129027, “4'-Methyl derivatives of 5-MOP and 5-MOA: synthesis, photoreactivity, and photobiological activity” (J Med Chem, 1996)
Calls of active or inactive are those of the source. The rule behind the calls is not given here.

Key:
HL-60 = assay: Compound was evaluated for cell growth inhibition against HL 60 cell line by irradiation in the presence of examined compound; type: functional, cell-based; conditions: Homo sapiens, HL-60, light or radiation study
A-431 = assay: Compound was evaluated for cell growth inhibition against A 431 cell line by irradiation in the presence of examined compound; type: functional, cell-based; conditions: Homo sapiens, A-431, light or radiation study
HeLa = assay: Compound was evaluated for cell growth inhibition against HeLa cell line by irradiation in the presence of examined compound; type: functional, cell-based; conditions: Homo sapiens, light or radiation study
Cavia porcellus [1] = species on record: Cavia porcellus; assay: Compound was tested for skin photosensitizing potency in guinea pig, after exposure to 50 microg cm e-2,and 20 kJ m e-2 of UVA; Absent; type: functional, organism-based
Nucleic Acid [2] = assay: Rate constant of the photoreaction between compound and DNA; type: nucleic-acid assay; conditions: Bos taurus
Nucleic Acid [3] = assay: Binding parameters of complexes between compound and DNA; type: nucleic-acid assay; conditions: Bos taurus
Cavia porcellus [4] = assay: Compound was tested for skin photosensitizing potency in guinea pig, after exposure to 50 microg cm e-2,and 20 kJ m e-2 of UVA; strong(with edema); type: functional, organism-based
Cavia porcellus [5] = species on record: Cavia porcellus; assay: Compound was tested for skin photosensitizing potency in guinea pig, after exposure to 50 microg cm e-2,and 20 kJ m e-2 of UVA; Medium; type: functional, organism-based

Row | SMILES | IC50 (HL-60) | IC50 (A-431) | IC50 (HeLa) | Rate constant (Nucleic Acid [2]) | K (Nucleic Acid [3]) | Formation of erythema (Cavia porcellus [1]) | Formation of erythema (Cavia porcellus [4]) | Formation of erythema (Cavia porcellus [5])
1 | COc1cc2occc2c2oc(=O)ccc12 [ISOBERGAPTENE] | > 10 µM | 7.72 µM | > 10 µM | – | – | inactive | – | –
2 | COc1c2occc2cc2ccc(=O)oc12 [METHOXSALEN] | 0.75 µM | 2.48 µM | 3.16 µM | – | – | – | Active | –
3 | COc1cc2occ(C)c2c2oc(=O)cc(C)c12 | 0.69 µM | 1.32 µM | 1.26 µM | 2.2 min⁻¹ | 3700 M⁻¹ | inactive | – | –

Now from value to compound, other results behind:

Row | IC50 (HL-60) | IC50 (A-431) | IC50 (HeLa) | Rate constant (Nucleic Acid [2]) | K (Nucleic Acid [3]) | SMILES | Formation of erythema (Cavia porcellus [1]) | Formation of erythema (Cavia porcellus [4]) | Formation of erythema (Cavia porcellus [5])
4 | 0.59 µM | 1.37 µM | 1.06 µM | 0.17 min⁻¹ | 3100 M⁻¹ | COc1cc2occ(C)c2c2oc(=O)c(C)cc12 | inactive | – | –
5 | 0.67 µM | 1.35 µM | 1.76 µM | 2.1 min⁻¹ | 630 M⁻¹ | COc1c2c(C)coc2cc2oc(=O)cc(C)c12 | inactive | – | –
6 | 2.72 µM | 7.75 µM | 6.83 µM | 0.32 min⁻¹ | 920 M⁻¹ | COc1c2cc(C)c(=O)oc2cc2occ(C)c12 | – | – | Medium
